Data set [1] is described as follows: Permeability from basolateral side to apical side in human Caco2 cells. It is filed as ADME, cell-based. The following applies: Caco-2, read-out: permeability. Background: Caco-2 monolayers are a common model of the intestinal barrier.
Data set [2] in a line: Half life in dog liver microsomes. Type of data set: ADME, Canis lupus familiaris. In general terms: Microsomes from liver hold many membrane-bound enzymes, among them those of drug oxidation.
The nature of data set [3]: Half life in mouse liver microsomes. Type of data set: ADME.
Data set [4] can be described thus: Half life in human liver microsomes. Type of data set: ADME.
Data set [5] can be described thus: Permeability from apical side to basolateral side in human Caco2 cells. It is filed as ADME, cell-based. The following applies: Caco-2, read-out: permeability.
Data set [6] in a line: Kinetic solubility of compound at pH 7. Type of data set: physicochemical. The following applies: buffer, read-out: Kinetic_solubility.

As usually defined, the half-life is the time needed for the level to fall by half in the phase considered. Higher therefore signals slow decline.

In brackets after ≈: the same amount, converted by molar mass. A value given as a limit tells only on which side of the number the result lay.

Take `CS(=O)(=O)N1CCCCC(=O)N2CCc3cc(ccc32)Nc2ncc(C(F)(F)F)c(n2)NCc2cccnc21`: the Papp B→A in data set [1] stood at 32 ×10⁻⁶ cm/s. In addition, the half-life in data set [2], in data set [3] and in data set [4] was below 1 h in each case. Further, the Papp A→B in data set [5] worked out at 30 ×10⁻⁶ cm/s.

For the compound `CN1Cc2ccccc2N(S(C)(=O)=O)CCCCC(=O)N2CCc3cc(ccc32)Nc2ncc(C(F)(F)F)c1n2`, the solubility kinetic in data set [6] was below 1.6 µM. For the same compound, the half-life in data set [2], in data set [3] and in data set [4] was below 1 h throughout.

Consider `CCS(=O)(=O)N1CCCCC(=O)N2CCc3cc(ccc32)Nc2ncc(C(F)(F)F)c(n2)NCc2ccccc21`, for which the solubility kinetic in data set [6] was below 1.6 µM. The half-life in data set [2], in data set [3] and in data set [4] was below 1 h throughout.

As to `CS(=O)(=O)N1CCCCC(=O)N2CCc3cc(ccc32)Nc2ncc(C(F)(F)F)c(n2)NCc2ccccc21`, in data set [6], the solubility kinetic was below 1.6 µM. Further, the half-life in data set [2], in data set [3] and in data set [4] was below 1 h throughout.

As for `CS(=O)(=O)N1C/C=C/c2cccc(c2)Nc2ncc(C(F)(F)F)c(n2)NCc2cccnc21`, the solubility kinetic in data set [6] amounted to 0.3 µM (≈ 0.143 µg/mL).

For `CN1Cc2cccnc2N(S(C)(=O)=O)C/C=C/c2cc(ccc2N2CCOCC2)Nc2ncc(C(F)(F)F)c1n2`, in data set [6], the solubility kinetic was determined as 1 µM (≈ 0.576 µg/mL).

For the compound `CN1Cc2ccncc2N(S(C)(=O)=O)C/C=C/c2cc(ccc2N2CCOCC2)Nc2ncc(C(F)(F)F)c1n2`, the solubility kinetic in data set [6] was 3 µM (≈ 1.73 µg/mL). This compound returned a half-life in data set [4] of 4.38 h.

With `CN(c1ncccc1CNc1nc(Nc2ccc3c(c2)CC(=O)N3)ncc1C(F)(F)F)S(C)(=O)=O` [PF-00562271], the Papp B→A in data set [1] was determined as 29 ×10⁻⁶ cm/s. For the same compound, in data set [5], the Papp A→B worked out at 11 ×10⁻⁶ cm/s.

The record behind these values is ChEMBL document CHEMBL3872238, “Selectivity switch between FAK and Pyk2: Macrocyclization of FAK inhibitors improves Pyk2 potency” (Bioorg Med Chem Lett, 2016).
